# Source: PubChem BioAssay AID1259407 (Chemical Carcinogenesis Research Information System (CCRIS), 2018)
# Calls of active or inactive are those of the source. The rule behind the calls is not given here.
# System: CCRIS mutagenicity, Ames/micronucleus/aberration tests
# Experiment: CCRIS mutagenicity studies
# [1] = Test System: AMES SALMONELLA TYPHIMURIUM, Strain/Indicator: TA98, Metabolic Activation: NONE, Method: STANDARD PLATE
# [2] = Test System: AMES SALMONELLA TYPHIMURIUM, Strain/Indicator: TA100, Metabolic Activation: NONE, Method: STANDARD PLATE
# [3] = Test System: AMES SALMONELLA TYPHIMURIUM, Strain/Indicator: TA98, Metabolic Activation: NONE, Method: PREINCUBATION
# [4] = Test System: AMES SALMONELLA TYPHIMURIUM, Strain/Indicator: TA97A, Metabolic Activation: NONE, Method: STANDARD PLATE
# [5] = Test System: AMES SALMONELLA TYPHIMURIUM, Strain/Indicator: TA100, Metabolic Activation: NONE, Method: PREINCUBATION
# [6] = Test System: AMES SALMONELLA TYPHIMURIUM, Strain/Indicator: TA1535, Metabolic Activation: NONE, Method: PREINCUBATION
# [7] = Test System: AMES SALMONELLA TYPHIMURIUM, Strain/Indicator: TA1537, Metabolic Activation: NONE, Method: PREINCUBATION
structure (smiles),measurement,setting,value
COc1c(C)c2c(c(O)c1C/C=C(\C)CCC(=O)O)C(=O)OC2,mutagenic call,"Test System: AMES SALMONELLA TYPHIMURIUM, Strain/Indicator: TA98, Metabolic Activation: RAT, LIVER, MICROSOMES, PHENOBARBITAL, Method: STANDARD PLATE",inactive; negative
same,mutagenic call,"Test System: AMES SALMONELLA TYPHIMURIUM, Strain/Indicator: TA100, Metabolic Activation: RAT, LIVER, MICROSOMES, PHENOBARBITAL, Method: STANDARD PLATE",inactive; negative
CC(=O)O[C@H]1[C@@]2(O)CC(C)(C)CC2=C(C=O)[C@@]2(C=O)C[C@@]12C,mutagenic call,[1],inactive; negative
same,mutagenic call,[2],active; positive
same,mutagenic call,"Test System: AMES SALMONELLA TYPHIMURIUM, Strain/Indicator: TA2637, Metabolic Activation: NONE, Method: STANDARD PLATE",inactive; negative
Cc1c2c(c(C)c3ccccc13)[C@H]1O[C@H]1c1ccccc1-2,mutagenic call,[3],active; positive
CCN[C@@H](C)C[C@H](C)NCC.[Cl-].[Cl-].[Pt+2],mutagenic call,[4],active; positive
same,mutagenic call,[2],active; positive
O=C1OC(O)C(CBr)=C1Br (configuration not stated),mutagenic call,[2],active; positive
C[C@@]12CCc3occc3[C@H]1CC[C@@]13C[C@@H](CC[C@H]12)[C@@](O)(CO)C3,mutagenic call,"Test System: AMES SALMONELLA TYPHIMURIUM, Strain/Indicator: TM677, Metabolic Activation: NONE, Method: PREINCUBATION",inactive; negative
same,mutagenic call,"Test System: AMES SALMONELLA TYPHIMURIUM, Strain/Indicator: TM677, Metabolic Activation: RAT, LIVER, S-9, AROCLOR 1254, Method: PREINCUBATION",inactive; negative
[N-]=[N+]=NC[C@@H](CO)Cc1ccccc1,mutagenic call,"Test System: AMES SALMONELLA TYPHIMURIUM, Strain/Indicator: TA100, Metabolic Activation: RAT, LIVER, S-9, PCB, Method: PREINCUBATION",active; positive
Cc1ccccc1O,mutagenic call,"Test System: Ames Salmonella typhimurium, Strain/Indicator: TA98, Metabolic Activation: Hamster, Liver, S-9, Aroclor 1254 (10%), Method: Preincubation",inactive; negative
same,mutagenic call,"Test System: Ames Salmonella typhimurium, Strain/Indicator: TA98, Metabolic Activation: None, Method: Preincubation",inactive; negative
same,mutagenic call,"Test System: Ames Salmonella typhimurium, Strain/Indicator: TA98, Metabolic Activation: Rat, Liver, S-9, Aroclor 1254 (10%), Method: Preincubation",inactive; negative
same,mutagenic call,"Test System: Ames Salmonella typhimurium, Strain/Indicator: TA100, Metabolic Activation: Hamster, Liver, S-9, Aroclor 1254 (10%), Method: Preincubation",inactive; negative
same,mutagenic call,"Test System: Ames Salmonella typhimurium, Strain/Indicator: TA100, Metabolic Activation: None, Method: Preincubation",inactive; negative
same,mutagenic call,"Test System: Ames Salmonella typhimurium, Strain/Indicator: TA100, Metabolic Activation: Rat, Liver, S-9, Aroclor 1254 (10%), Method: Preincubation",inactive; negative
same,mutagenic call,"Test System: Ames Salmonella typhimurium, Strain/Indicator: TA1535, Metabolic Activation: Hamster, Liver, S-9, Aroclor 1254 (10%), Method: Preincubation",inactive; negative
same,mutagenic call,"Test System: Ames Salmonella typhimurium, Strain/Indicator: TA1535, Metabolic Activation: None, Method: Preincubation",inactive; negative
same,mutagenic call,"Test System: Ames Salmonella typhimurium, Strain/Indicator: TA1535, Metabolic Activation: Rat, Liver, S-9, Aroclor 1254 (10%), Method: Preincubation",inactive; negative
same,mutagenic call,"Test System: Ames Salmonella typhimurium, Strain/Indicator: TA1537, Metabolic Activation: Hamster, Liver, S-9, Aroclor 1254 (10%), Method: Preincubation",inactive; negative
same,mutagenic call,"Test System: Ames Salmonella typhimurium, Strain/Indicator: TA1537, Metabolic Activation: None, Method: Preincubation",inactive; negative
same,mutagenic call,"Test System: Ames Salmonella typhimurium, Strain/Indicator: TA1537, Metabolic Activation: Rat, Liver, S-9, Aroclor 1254 (10%), Method: Preincubation",inactive; negative
C[C@H]1COc2c(C3(N)CC3)c(F)cc3c(=O)c(C(=O)O)cn1c23,mutagenic call,[3],inactive; negative
same,mutagenic call,"Test System: AMES SALMONELLA TYPHIMURIUM, Strain/Indicator: TA98, Metabolic Activation: RAT, LIVER, S-9, PHENOBARBITAL AND 5,6-BENZOFLAVONE, Method: PREINCUBATION",inactive; negative
same,mutagenic call,[5],inactive; negative
same,mutagenic call,"Test System: AMES SALMONELLA TYPHIMURIUM, Strain/Indicator: TA100, Metabolic Activation: RAT, LIVER, S-9, PHENOBARBITAL AND 5,6-BENZOFLAVONE, Method: PREINCUBATION",inactive; negative
same,mutagenic call,[6],inactive; negative
same,mutagenic call,"Test System: AMES SALMONELLA TYPHIMURIUM, Strain/Indicator: TA1535, Metabolic Activation: RAT, LIVER, S-9, PHENOBARBITAL AND 5,6-BENZOFLAVONE, Method: PREINCUBATION",inactive; negative
same,mutagenic call,[7],inactive; negative
same,mutagenic call,"Test System: AMES SALMONELLA TYPHIMURIUM, Strain/Indicator: TA1537, Metabolic Activation: RAT, LIVER, S-9, PHENOBARBITAL AND 5,6-BENZOFLAVONE, Method: PREINCUBATION",inactive; negative
same,mutagenic call,"Test System: E. COLI, Strain/Indicator: WP2 UVRA, Metabolic Activation: NONE, Method: PREINCUBATION",inactive; negative
same,mutagenic call,"Test System: E. COLI, Strain/Indicator: WP2 UVRA, Metabolic Activation: RAT, LIVER, S-9, PHENOBARBITAL AND 5,6-BENZOFLAVONE, Method: PREINCUBATION",inactive; negative
COCC(=O)O,mutagenic call,[4],inactive; negative
same,mutagenic call,"Test System: AMES SALMONELLA TYPHIMURIUM, Strain/Indicator: TA97A, Metabolic Activation: RAT, LIVER, S-9, AROCLOR 1254, Method: STANDARD PLATE",inactive; negative
same,mutagenic call,[1],inactive; negative
same,mutagenic call,"Test System: AMES SALMONELLA TYPHIMURIUM, Strain/Indicator: TA98, Metabolic Activation: RAT, LIVER, S-9, AROCLOR 1254, Method: STANDARD PLATE",inactive; negative
same,mutagenic call,[2],inactive; negative
same,mutagenic call,"Test System: AMES SALMONELLA TYPHIMURIUM, Strain/Indicator: TA100, Metabolic Activation: RAT, LIVER, S-9, AROCLOR 1254, Method: STANDARD PLATE",inactive; negative
same,mutagenic call,"Test System: AMES SALMONELLA TYPHIMURIUM, Strain/Indicator: TA102, Metabolic Activation: NONE, Method: STANDARD PLATE",inactive; negative
same,mutagenic call,"Test System: AMES SALMONELLA TYPHIMURIUM, Strain/Indicator: TA102, Metabolic Activation: RAT, LIVER, S-9, AROCLOR 1254, Method: STANDARD PLATE",inactive; negative
same,mutagenic call,"Test System: CHINESE HAMSTER OVARY, Strain/Indicator: CHO AS52 (GPT)/6-THIOGUANINE, Metabolic Activation: NONE",inactive; negative
same,mutagenic call,"Test System: CHINESE HAMSTER OVARY, Strain/Indicator: CHO-K1-BH4 (HGPRT)/6-THIOGUANINE, Metabolic Activation: NONE",inactive; negative
same,mutagenic call,"Test System: CHINESE HAMSTER OVARY, Strain/Indicator: CHO-K1-BH4 (HGPRT)/6-THIOGUANINE, Metabolic Activation: RAT, LIVER, S-9, AROCLOR 1254",inactive; negative
Nc1ccccn1,mutagenic call,"Test System: AMES SALMONELLA TYPHIMURIUM, Strain/Indicator: TA98, Metabolic Activation: HAMSTER, LIVER, S-9, AROCLOR 1254 (10%), Method: PREINCUBATION",inactive; negative
same,mutagenic call,[3],inactive; negative
same,mutagenic call,"Test System: AMES SALMONELLA TYPHIMURIUM, Strain/Indicator: TA98, Metabolic Activation: RAT, LIVER, S-9, AROCLOR 1254 (10%), Method: PREINCUBATION",inactive; negative
same,mutagenic call,"Test System: AMES SALMONELLA TYPHIMURIUM, Strain/Indicator: TA100, Metabolic Activation: HAMSTER, LIVER, S-9, AROCLOR 1254 (10%), Method: PREINCUBATION",inactive; negative
same,mutagenic call,[5],inactive; negative
same,mutagenic call,"Test System: AMES SALMONELLA TYPHIMURIUM, Strain/Indicator: TA100, Metabolic Activation: RAT, LIVER, S-9, AROCLOR 1254 (10%), Method: PREINCUBATION",inactive; negative
same,mutagenic call,"Test System: AMES SALMONELLA TYPHIMURIUM, Strain/Indicator: TA1535, Metabolic Activation: HAMSTER, LIVER, S-9, AROCLOR 1254 (10%), Method: PREINCUBATION",inactive; negative
same,mutagenic call,[6],inactive; negative
same,mutagenic call,"Test System: AMES SALMONELLA TYPHIMURIUM, Strain/Indicator: TA1535, Metabolic Activation: RAT, LIVER, S-9, AROCLOR 1254 (10%), Method: PREINCUBATION",inactive; negative
same,mutagenic call,"Test System: AMES SALMONELLA TYPHIMURIUM, Strain/Indicator: TA1537, Metabolic Activation: HAMSTER, LIVER, S-9, AROCLOR 1254 (10%), Method: PREINCUBATION",inactive; negative
same,mutagenic call,[7],inactive; negative
same,mutagenic call,"Test System: AMES SALMONELLA TYPHIMURIUM, Strain/Indicator: TA1537, Metabolic Activation: RAT, LIVER, S-9, AROCLOR 1254 (10%), Method: PREINCUBATION",inactive; negative
